Source: US20170008888A1 (KYORIN PHARMACEUTICAL CO., LTD., priority 2014, published 2017)

Assays:
ERK5 = biological target: T1, ERK5 (Homo sapiens, UniProt Q13164); assay: Probe-based (AX9989 acyl phosphate ATP probe) kinase profiling in Jurkat lysate: ERK5; assay type: binding; conditions: for IC50: calculated from percent inhibition of AX9989 labeling and the screening concentration, Jurkat lysate; for inhibition at 0.1 µM: screening concentration 0.1 μM; for inhibition at 0.1 µM / inhibition at 1 µM: read-out: Kinase inhibition % at indicated screening concentration: ERK5; for inhibition at 1 µM: screening concentration 1.0 μM
T1 construct: screened for activity against several kinases in Jurkat cells; endogenous in cells; host or cells: Jurkat cell lysate
In short: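 Gel-filtered Jurkat lysate (5 mg/ml, 20 mM MnCl2) preincubated 15 min at room temperature with compound, then labelled with 5 μM AX9989 acyl phosphate ATP probe. Probe-labelled ERK5 active-site peptides quantified by LC/MS after trypsin digestion and streptavidin capture; IC50 calculated from percent inhibition at the screening concentration.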

AurB or AurC = assay: Probe-based (AX9989) kinase profiling in Jurkat lysate: AurB or AurC; assay type: binding
In short: (§1)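 Gel-filtered Jurkat lysate (HEPES pH 7.5, 20 mM MnCl2, 5 mg/ml) was pre-incubated 15 min with compound at room temperature, then labelled with 5 μM acyl-phosphate ATP probe AX9989. Tryptic probe-labelled active-site peptides were streptavidin-captured and quantified by LC/MS. Percent inhibition reflected the decrease in labelled-peptide intensity versus no compound.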

ABL or ARG = assay: Probe-based (AX9989) kinase profiling in Jurkat lysate: ABL or ARG; assay type: binding
In short: as §1

human PBMCs = assay: Human PBMC TNF-α response to endotoxin (ELISA); assay type: cell-based; conditions: 0.1 μg/ml LPS 16 h, read-out: EC50 for the inhibition of the human PBMC TNF-α response to endotoxin, ave. ± S.D.
In short: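 PBMCs at 2e6 cells/ml in RPMI 1640 with 10% charcoal-dextran-treated FBS were pre-treated 1 h at 37 °C with compound (4-point 1:5 dilution from 10 μM). Stimulation with 0.1 μg/ml E. coli 0111:B4 LPS for 16 h; TNF-α measured by ELISA (A450) in 25-fold diluted supernatant.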

[1] = biological target: T2, BRD4 bromodomain domain I [BRD4(1)] (Homo sapiens, UniProt O60885); assay: BRD4 bromodomain domain 1 inhibition assay (TR-FRET); assay type: binding; conditions: screening concentration 10 μM
T2 construct: BRD4 bromodomain domain I [BRD4(1)]; purchased Cayman Chemicals
In short: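 0.5% DMSO, in triplicate, using Cayman BRD4(1) TR-FRET protocol with slight modification. 670/620 nm ratio normalized to 10 μM JQ1, with DMSO control set as 0% inhibition.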

T1 sequence (Q13164 whole entry): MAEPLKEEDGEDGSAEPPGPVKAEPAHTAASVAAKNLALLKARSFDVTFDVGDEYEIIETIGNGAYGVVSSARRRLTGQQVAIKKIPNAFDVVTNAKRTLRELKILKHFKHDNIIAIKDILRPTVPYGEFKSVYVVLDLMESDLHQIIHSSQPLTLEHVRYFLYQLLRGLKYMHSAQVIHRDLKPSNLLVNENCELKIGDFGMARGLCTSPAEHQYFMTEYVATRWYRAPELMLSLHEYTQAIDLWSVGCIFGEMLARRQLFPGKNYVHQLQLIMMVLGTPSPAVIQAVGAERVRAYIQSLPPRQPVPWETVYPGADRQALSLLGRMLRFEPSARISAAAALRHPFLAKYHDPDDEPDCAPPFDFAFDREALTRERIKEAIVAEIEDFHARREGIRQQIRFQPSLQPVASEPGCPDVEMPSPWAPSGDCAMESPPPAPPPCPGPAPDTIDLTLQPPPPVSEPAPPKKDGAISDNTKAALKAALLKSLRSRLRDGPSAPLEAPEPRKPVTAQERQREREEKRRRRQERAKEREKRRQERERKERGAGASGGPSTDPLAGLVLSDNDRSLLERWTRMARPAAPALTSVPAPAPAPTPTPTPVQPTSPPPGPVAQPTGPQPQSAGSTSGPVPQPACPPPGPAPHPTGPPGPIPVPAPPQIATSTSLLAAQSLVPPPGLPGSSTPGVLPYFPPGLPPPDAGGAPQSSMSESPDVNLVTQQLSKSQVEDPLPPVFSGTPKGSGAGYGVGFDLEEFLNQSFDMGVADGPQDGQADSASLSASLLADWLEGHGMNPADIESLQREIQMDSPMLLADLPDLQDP

SMILES | IC50 (ERK5) [nM] | inhibition at 0.1 µM (ERK5) [%] | Kinase inhibition % at indicated screening concentration: AurB or AurC (AurB or AurC; screening concentration 0.1 μM) | Kinase inhibition % at indicated screening concentration: ABL or ARG (ABL or ARG; screening concentration 0.1 μM) | EC50 (human PBMCs) [nM] | inhibition at 10 µM [1] [%] | inhibition at 1 µM (ERK5) [%] | Kinase inhibition % at indicated screening concentration: AurB or AurC (AurB or AurC; screening concentration 1.0 μM) | Kinase inhibition % at indicated screening concentration: ABL or ARG (ABL or ARG; screening concentration 1.0 μM)
CCOc1cc(C(=O)N2CCC(N3CCN(C)CC3)CC2)ccc1Nc1cc2c(cn1)N(C)C(=O)c1occc1N2C [Compound 65] | ≤ 50 | > 90 | E (E is ≦35%) | E (E is ≦35%) | 460 | > 85 | – | – | –
CCOc1cc(C(=O)NCCO)ccc1Nc1cc2c(cn1)N(C)C(=O)c1ccccc1N2C [Compound 66] | > 500 | – | – | – | 1330 | < 70 | 50 to 75 | E (E is ≦35%) | E (E is ≦35%)
CCOc1cc(C(=O)N2CC[C@@H](N(CC)CC)C2)ccc1Nc1cc2c(cn1)N(C)C(=O)c1occc1N2C [Compound 67] | ≤ 50 | > 90 | E (E is ≦35%) | E (E is ≦35%) | 920 ± 180 | > 85 | – | – | –
CCOc1cc(C(=O)N[C@@H]2CCCOC2)ccc1Nc1cc2c(cn1)N(C)C(=O)c1ccccc1N2C [Compound 69] | 101 to 500 | – | – | – | 1070 | < 70 | 50 to 75 | E (E is ≦35%) | E (E is ≦35%)
COc1cc(C(=O)N2CCC(N(C)C)C2)ccc1Nc1cc2c(cn1)N(C)C(=O)c1ccccc1N2C (stereo not drawn) [Compound 70] | ≤ 50 | 50 to 75 | E (E is ≦35%) | E (E is ≦35%) | 2100 | 70 to 85 | – | – | –
CCOc1cc(C(=O)N2CCCNCC2)ccc1Nc1cc2c(cn1)N(C)C(=O)c1ccccc1N2C [Compound 71] | ≤ 50 | – | – | – | 780 | > 85 | > 90 | E (E is ≦35%) | E (E is ≦35%)
CCOc1cc(C(=O)N2CCC(F)C2)ccc1Nc1cc2c(cn1)N(C)C(=O)c1occc1N2C (stereo not drawn) [Compound 72] | ≤ 50 | 75 to 90 | E (E is ≦35%) | E (E is ≦35%) | 1230 ± 150 | 70 to 85 | – | – | –
COc1cc(NS(C)(=O)=O)ccc1Nc1cc2c(cn1)N(C)C(=O)c1ccccc1N2C [Compound 73] | 101 to 500 | – | – | – | 1840 | < 70 | 75 to 90 | E (E is ≦35%) | E (E is ≦35%)
CN1C(=O)c2ccccc2N(C)c2cc(N[C@H]3CC[C@H](N4CCCC4)CC3)ncc21 [Compound 74] | 101 to 500 | – | – | – | 4960 | < 70 | 50 to 75 | E (E is ≦35%) | E (E is ≦35%)
CCOc1cc(C(=O)N2CC[C@H](N(C)C)C2)ccc1Nc1cc2c(cn1)N(C)C(=O)c1ccccc1N2C [Compound 75] | ≤ 50 | – | – | – | 610 | > 85 | > 90 | E (E is ≦35%) | E (E is ≦35%)
CCOc1cc(C(=O)NC2CCOCC2)ccc1Nc1cc2c(cn1)N(C)C(=O)c1ccccc1N2C [Compound 80] | 101 to 500 | – | – | – | 1290 | < 70 | 50 to 75 | E (E is ≦35%) | E (E is ≦35%)
CCOc1cc(C(=O)N2CCNC[C@H]2C)ccc1Nc1cc2c(cn1)N(C)C(=O)c1ccccc1N2C [Compound 82] | ≤ 50 | 75 to 90 | E (E is ≦35%) | E (E is ≦35%) | 1540 | > 85 | – | – | –
CCOc1cc(C(=O)NCCOC)ccc1Nc1cc2c(cn1)N(C)C(=O)c1ccccc1N2C [Compound 83] | 101 to 500 | – | – | – | 1480 | < 70 | 75 to 90 | E (E is ≦35%) | E (E is ≦35%)
CCOc1cc(C(=O)NCCn2ccnc2)ccc1Nc1cc2c(cn1)N(C)C(=O)c1ccccc1N2C [Compound 84] | 50 to 100 | – | – | – | 1180 | < 70 | > 90 | E (E is ≦35%) | E (E is ≦35%)
CCOc1cc(C(=O)N(C)CCN(C)C)ccc1Nc1cc2c(cn1)N(C)C(=O)c1ccccc1N2C [Compound 88] | ≤ 50 | > 90 | E (E is ≦35%) | E (E is ≦35%) | 600 | > 85 | – | – | –
CCOc1cc(C(=O)N2CCC(N3CCCC3)CC2)ccc1Nc1cc2c(cn1)N(C)C(=O)c1occc1N2C [Compound 91, 6-((2-Ethoxy-4-(4-(pyrrolidin-1-yl)piperidine-1-carbonyl)phenyl)amino)-4,9-dimethyl-4H-furo[3,2-e]pyrido[3,4-b][1,4]diazepin-10(9H)-one] | ≤ 50 | > 90 | E (E is ≦35%) | E (E is ≦35%) | 710 | > 85 | – | – | –
CCOc1cc(C(=O)N2CCCC(O)C2)ccc1Nc1cc2c(cn1)N(C)C(=O)c1ccccc1N2C (stereo not drawn) [Compound 93] | 50 to 100 | – | – | – | 760 | > 85 | > 90 | E (E is ≦35%) | E (E is ≦35%)
CCOc1cc(C(=O)N2CCN(C(C)(C)C)CC2)ccc1Nc1cc2c(cn1)N(C)C(=O)c1ccccc1N2C [Compound 94] | ≤ 50 | 75 to 90 | E (E is ≦35%) | E (E is ≦35%) | 980 | 70 to 85 | – | – | –
CCOc1cc(C(=O)N2CCC[C@H](O)C2)ccc1Nc1cc2c(cn1)N(C)C(=O)c1ccccc1N2C [Compound 96] | ≤ 50 | > 90 | E (E is ≦35%) | E (E is ≦35%) | 570 | > 85 | – | – | –
